{"source": "patent US10556860B2", "about": "“hTERT modulators and methods of use” (Arizona Board of Regents on Behalf of the University of …, priority 2015, dated 2020)", "key": {"[1]": {"test_system": "i-motif formed from the full-length C-rich strand of hTERT promoter", "assay": "CD melting (Tm), i-motif", "type": "binding, human", "settings": "pH 6.6", "method": "Circular dichroism. Oligomers of WT, G124A, G124/125A, G138/139A and G146A were synthesized and HPSF-purified by MGW Operon, Inc. For CD analysis, oligomers (5 μM) in a buffer containing 10 mM Tris-HCl (pH 7.5) and 140 mM KCl were annealed. For the CD analysis of the complex of oligomers and compounds, oligomers (5 μM) in a buffer containing 10 mM Tris-HCl (pH 7.5) and 5 mM KCl for GTC365 or 1 mM KCl for BRACO-19 were annealed. Oligomers and GTC365 or BRACO-19 were incubated overnight at room temperature. For the full-length of C-rich strand, the oligomer in a buffer of 10 mM Na cacodylate (pH 6.6) was annealed and then incubated with GTC365 overnight. CD analysis was conducted on a Jasco 810 spectropolarimeter (Jasco, Easton, Md.) using a quartz cell with 1 mm of path length, 1 nm of band width, and 1 s of response time for spectra at 20° C. Melting curves for the determination of Tm were obtained by recording ellipticity at 262 nm with increasing temperatures from 25° C. to 95° C. at a rate of 1.6° C./min. Tm of the C-rich strand with GTC365 was obtained from the CD signal at 286 nm within 10-60° C.\nIn contrast, BRACO-19 increased the Tm of telomeric G-quadruplex by ˜60% compared to that of the hTERT G-quadruplex at 0.5 and 1 equiv. A summary of the comparative Tms of GTC365 and BRACO-19 in hTERT and telomeric DNA is shown below."}, "[2]": {"test_system": "pGL3 constructs that contain the G124A, G124/125A, G138/139A, and G146A mutations", "assay": "Luciferase assay, somatic mutant constructs in MCF7 cells", "type": "cell-based, human", "settings": "24 h", "method": "Luciferase assay. From gDNA extracted from HeLa cells, the hTERT core promoter region, including −350 bp to +12 from the transcription start site, was amplified using a pair of primers, including KpnI and NheI restriction sites, for cloning of pGL3-hTERT with WT promoter sequence. Mutant constructs were generated by PCR-based site-directed mutagenesis. The sequence of each construct was confirmed by sequencing analysis. MCF7 cells in 24-well plate were transfected with 200 ng of pGL3 construct and 5 ng of pRL-TK by Fugene® HD Transfection Reagent and then incubated for 6 h. Media were replaced by fresh ones and the cells were treated with GTC365 or BRACO-19. The same volume of DMSO served as a control. After 24 h of incubation, cells were lysed by passive lysis buffer (Promega) and subjected to dual-luciferase assay (Promega) using an FB12 luminometer. The ratio of firefly to renilla luciferase activity was normalized to the DMSO to obtain the relative luciferase activity.\nThe effect of GTC365 on the somatic mutants in the hTERT promoter region was also examined by transfecting cells with pGL3 constructs that contain the G124A, G124/125A, G138/139A, and G146A mutations."}, "[3]": {"test_system": "hTERT under the control of the CMV promoter", "assay": "hTERT transcription in MCF7 cells overexpressing hTERT under CMV promoter", "type": "cell-based, human", "settings": "MCF7 cell line transfected with plasmid overexpressing hTERT (CMV promoter)", "method": "qPCR. MCF7 and melanoma cells were treated with GTC365 and BRACO-19 for 72 h. Total RNA was extracted using an RNeasy mini-prep kit (Qiagen) and quantitated by measuring absorbance at 260 nm. cDNA was synthesized using a Takara PrimeScript™ RT Reagent Kit with gDNA eraser and then used as a template for qPCR. The qPCR was performed using Kapa Probe Fast qPCR Master Mix with ABI Taqman probes of hTERT (Hs00972656_m1), BCL2 (HS00608023_m1, FAM-labeled) or MYC (Hs00153408_m1), and GAPDH (Hs02758991_g1, VIC-labeled). The Ct values were measured by running Rotor-Gene Q, and the relative quantity of hTERT, BCL2, and MYC mRNA was obtained compared to GAPDH as an internal control.\nEstablishment of stable cell lines overexpressing hTERT. The pCDNA-3XHA-hTERT plasmid containing hTERT driven by theCMV promoter was obtained from Addgene (ID: 51637) deposited by Dr. Steven Artandi. MCF7 cells in a 24-well plate were transfected with this plasmid (250 ng) using FuGENE HD transfection reagent for24 h. Cells were treated with several concentrations of G418 (0.1-1 mg/mL) and an antibiotic for colony selection for 4 weeks, and thenone colony was selected for further culture. […]"}, "BAX/BCL2 mRNA ratio": {"test_system": "BAX/BCL2 mRNA ratio", "assay": "BAX/BCL2 ratio in MCF7 cells", "type": "cell-based, human", "settings": "0.5-1 μM, 72 h, relative to DMSO", "method": "FIG. 11 is a graph showingincrease of BAX/BCL2 ratios by GTC365 in mRNA levels. MCF7 cells were treated with GTC365 for 72 h and then subjected to qPCR and immunoblot analysis. The relative ratio of BAX/BCL2 was determined compared with a DMSO-treated sample.\nIndeed at 0.5-1 μM, the BAX/BCL2 ratio was increased by over 2-fold and the capase-3 activity was increased by 47% (FIGS. 11 and 12)."}, "MCF7 cells": {"test_system": "MCF7 cells", "assay": "Cell cycle analysis by PI staining", "type": "cell-based, human", "settings": "48 h treatment", "method": "Cell cycle analysis by PI staining. MCF7 cells were treated with GTC365 for 48 h. Cells were trypsinized and washed with cold D-PBS. Cell pellets were subjected to 70% EtOH fixation at −20° C. overnight. Cells were incubated with RNase A and PI for 3 h at 37° C. and then kept in ice before FACS analysis (FACScanto II, BD Biosciences, San Jose, Calif.).\nSince knockdown of hTERT arrests the cell cycle in the G0/G1 phase, the effects of GTC365 on the cell cycle were evaluated. GTC365 increased the population of the G0/G1 (from 57% to 71%) and G2/M phases (from 10% to 19%), whereas the S-phase was decreased (from 33% to 10%) in a dose-dependent manner with 48 h treatment. […] It is known that various anticancer drugs induce SLP in different cancer cells, leading to mitotic catastrophe as well as apoptotic cell death. Doxorubicin, one of the representative anticancer drugs, induced apoptosis and mitotic catastrophe accompanied by multiple nuclei with SLP. GTC365, like doxorubicin, appears to arrest cell proliferation and induce cell death, apoptosis, or mitotic catastrophe through downregulation of hTERT."}}, "data": [{"molecule": "N=C(N)NCCCS(=O)(=O)Nc1ccc(Nc2c3ccccc3nc3cc([N+](=O)[O-])ccc23)cc1", "note": "[GTC365]", "values": [{"measurement": "change in Tm of the i-motif", "setting": "[1]", "result": "little change in Tm"}, {"measurement": "luciferase activity of the mutants", "setting": "[2]", "result": "decreased luciferase activity of the mutants in a dose-dependent manner"}, {"measurement": "effect on hTERT transcription", "setting": "[3]", "result": "no effect"}, {"measurement": "increase of BAX/BCL2 ratio", "setting": "BAX/BCL2 mRNA ratio", "result": "over 2 fold"}, {"measurement": "population in G2/M phase", "setting": "MCF7 cells; from 10% without compound", "result": 19, "unit": "%"}, {"measurement": "population in S-phase", "setting": "MCF7 cells; from 33% without compound", "result": 10, "unit": "%"}, {"measurement": "population in G0/G1 phase", "setting": "MCF7 cells; from 57% without compound", "result": 71, "unit": "%"}]}]}
